Data published in the METLIN SMRT retention time set (Domingo-Almenara et al. 2019).

Experiment: gradient 5% acetonitrile 3 min, to 50% in 2 min, to 85% in 15 min, held 3 min, 100 µL/min
Settings: column: Zorbax Extend-C18 2.1 x 50 mm; eluents: water / acetonitrile, 0.1% formic acid
Outline: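 Using water and acetonitrile that each contained 0.1% formic acid, mixtures of ~100 pure standards were separated at 100 μL/min on a Zorbax Extend-C18 column (2.1 × 50 mm, 1.8 μm). The HPLC fed a quadrupole time-of-flight mass spectrometer working in positive and negative ionization mode, with dead and dwell volumes of 40 μL and 900 μL. Data were acquired over 3 months. Retention time was read from computationally picked adduct peaks after manual inspection of each.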

Row | RP-LC retention time [s] | Structure (SMILES)
1 | 754 | CN1C(=O)c2cccnc2Sc2cc(NC(=O)c3c(F)cccc3F)ccc21
2 | 657 | COc1ccc(NC(=O)NCCc2nc3cccnc3n2-c2ccccc2)cc1OC
3 | 1060 | Cc1nc(C)c(C(=O)Nc2nc(-c3ccc(Cl)cc3)c(C)s2)s1
4 | 1200 | CCn1nccc1-c1cccc(-c2noc(COc3ccc(Cl)cc3)n2)c1
5 | 1110 | CCCCn1c(=O)c2ccccc2n(Cc2nc(-c3ccc(Cl)c(F)c3)no2)c1=O
6 | 840 | Cn1nc(-c2nc(C3CC3)no2)c2c1CCN(C(=O)Nc1cccc(F)c1)C2
7 | 879 | Cc1cc(NC(=O)C(C)(C)C)nn1Cc1ccccc1
8 | 1230 | CCCN1C(=O)COc2cc(-c3noc(C(=O)N4CCN(c5cccc(Cl)c5)CC4)n3)ccc21
9 | 810 | O=C(NC1CCCCC1N1C(=O)CSC1=O)c1cc(Cl)ccc1Cl (stereo not drawn)
10 | 1410 | CC(C)(C)c1ccc(C(=O)NC2(c3nc(-c4ccccc4)no3)CCCCC2)cc1
11 | 804 | O=C(O)c1cccc2c1C(=O)c1cccc3snc-2c13
12 | 780 | O=C(Nc1nc2c(s1)CN(S(=O)(=O)/C=C/c1ccccc1)CC2)c1cnccn1
13 | 1420 | CCn1nccc1-c1cccc(-c2noc(-c3ccc(C)c(C)c3)n2)c1
14 | 799 | CCN(CC)C(=O)c1c2c(cn(-c3ccc(C)cc3)c1=O)C(=O)CC(C)(C)C2
15 | 1300 | Cc1occc1C(=O)Nc1nc(-c2ccc(C(C)(C)C)cc2)cs1
16 | 861 | Cc1cc2c(c(=O)n(-c3ccc(F)cc3)c(=O)n2CC(=O)Nc2cccc(Br)c2)n1C
17 | 777 | Cc1cccn2cc(C(=O)NCc3cccc(Cl)c3)nc12
18 | 851 | CCOc1ccc(NS(=O)(=O)c2cc(C(=O)Nc3ccc(F)cc3)n[nH]2)cc1
19 | 770 | CN1c2cc(Cl)ccc2C(=O)NC12CCN(C(=O)Nc1ccccc1F)CC2
20 | 796 | CCc1nc(-c2ccc3c(c2)CCN3C(=O)Cc2ccc(NC(C)=O)cc2)no1
21 | 1160 | CCCCN(C)S(=O)(=O)c1c(C)nn(-c2ccc(-c3ccccc3)nn2)c1C
22 | 1100 | Fc1ccccc1-c1noc(Cc2nnc(-c3ccc(Cl)cc3)o2)n1

Row | RP-LC retention time [s] | Structure (SMILES)
23 | 1120 | Cc1cc(C(=O)NCc2cc(F)cc(F)c2)nc2cc(-c3cccs3)nn12
24 | 726 | CC(=O)Nc1ccc(S(=O)(=O)NCCc2cn(CC(C)C)c3ncccc23)cc1
25 | 902 | Cc1noc(-c2ccc(NC(=O)c3cc(-c4ccco4)on3)cc2)n1
26 | 765 | COc1ccc(-c2nc(Cn3cnc4ccccc4c3=O)no2)c(OC)c1
27 | 869 | O=c1cc(-c2ccc(Cl)cc2)[nH]c2ccccc12
28 | 852 | Cc1nnc(-c2ccc3ccn(CC(=O)N4CCc5ccccc54)c3c2)o1
29 | 744 | COc1ccc(N2CCN(c3nnc(-c4nnc(C)o4)c4ccccc34)CC2)cc1
30 | 792 | Cc1ccc(-c2ccc(N3CCCC(C(=O)N4CCC(C)CC4)C3)nn2)cc1C (stereo not drawn)
31 | 661 | CNC(=O)C1CCCN(c2nc3ncn(CC(=O)Nc4c(C)cccc4C)c(=O)c3s2)C1 (stereo not drawn)
32 | 949 | Cc1ccc(-c2cc(C(=O)Nc3ccc4c(c3)CCC(=O)N4)c3ccccc3n2)cc1C
33 | 895 | CCC(C(=O)NCCc1c[nH]c2ccc(OC)cc12)n1nc(C)c2nn(-c3ccccc3)c(C)c2c1=O (stereo not drawn)
34 | 799 | Cc1ccn2c(NC(=O)COc3ccc(Cl)cc3Cl)c(-c3ccccc3)nc2c1
35 | 723 | CCCn1c(CCNC(=O)c2ccc(CC)cc2)nc2cccnc21
36 | 846 | O=c1ccn(-c2cccc(F)c2)nc1-c1nc(-c2ccccc2F)no1
37 | 590 | CCN(C(=O)Nc1ccccc1C(=O)OC)c1nc(-c2ccc(C3CCCCC3)cc2)cs1
38 | 1000 | Cn1ncc2c(Sc3ccc(Cl)cc3)ncnc21
39 | 939 | O=C(NCc1cccs1)c1nnc(-c2ccc(S(=O)(=O)N3CCCCC3)cc2)o1
40 | 796 | CCc1onc(C)c1C1CCCN1C(=O)Nc1ccc(OC)cc1OC (stereo not drawn)
41 | 1230 | CCCCn1c(=O)c2ccccc2n(Cc2nc(-c3cccc(C)c3)no2)c1=O
42 | 705 | CCc1nnc2ccc(-c3noc(-c4ccc(NC(C)=O)cc4)n3)cn12
43 | 866 | CCc1noc(NC(C)=O)c1-c1ccc(C)c(S(=O)(=O)Nc2ccc(Cl)cc2F)c1
44 | 769 | CCOc1cc(=O)n2c(c1C(=O)Nc1ccc(Cl)cc1)CCCC2

More lines, now with the values behind:

Row | Structure (SMILES) | RP-LC retention time [s]
45 | Cc1noc(C2CN(C(=O)c3n[nH]c4ccccc34)CC23CCN(C)CC3)n1 (stereo not drawn) | 1010
46 | CCC(=O)N1CCN(Cc2nc3cc(NC(=O)C(C)C)ccc3n2C)CC1 | 584
47 | O=c1c2cnn(-c3ccc(F)cc3)c2ncn1Cc1nc(-c2ccc(OC(F)(F)F)cc2)no1 | 1160
48 | O=C(CN1CCN(Cc2ccc(F)cc2)C1=O)NCc1ccc(F)cc1Cl | 844
49 | CC1CCCN(CCCNC(=O)c2cc(=O)n3c(nc4ccccc43)s2)C1 (stereo not drawn) | 638
50 | O=C(NCc1ccccc1)C1CCN(S(=O)(=O)c2cc(-c3noc(C4CC4)n3)cs2)CC1 | 935
51 | CCCS(=O)(=O)N1C[C@@H](COC)[C@H](c2ccccn2)C1 | 619
52 | Fc1ccccc1CN1CCCN(c2ncccc2-c2nc(C3CC3)no2)CC1 | 675
53 | Cc1cc(N2CCN(S(=O)(=O)c3cc(F)ccc3C)CC2)nc(NC2CCCCC2)n1 | 864
54 | COCCNC(=O)NCCC1CCN(S(=O)(=O)c2ccc(C)cc2)CC1 | 686
55 | O=C(CN1CCN(C(=O)Nc2ccccc2)CC1=O)N1CCN(c2ccccc2)CC1 | 696
56 | CCOC(=O)c1ccc(NC(=O)NCC(c2cccnc2)c2c[nH]c3ccccc23)cc1 (stereo not drawn) | 814
57 | O=C(Cn1ncc2c(c1=O)N(CC1CC1)C(=O)CS2)N1CCN(c2ccccc2)CC1 | 788
58 | Cn1ncc2c3ccccc3n(CC(=O)NCCCN3CCCCC3)c2c1=O | 580
59 | COc1cccc(N2CCN(Cc3nc(-c4ccc(N5CCCC(C)C5)nc4)no3)CC2)c1 (stereo not drawn) | 882
60 | CCOc1nc2ccccc2nc1N1CCCC(C(=O)N2CCc3ccccc3C2)C1 (stereo not drawn) | 1310
61 | CN(C)C(=O)c1ccc2c(c1)N(CC(=O)N1CCN(c3ccccc3)CC1)C(=O)CO2 | 689
62 | O=C(c1ccsc1)N1CCCCC1c1nncn1Cc1ccccc1 (stereo not drawn) | 726
63 | Cn1cc(C2=C(c3cn(CCCSC(=N)N)c4ccccc34)C(=O)NC2=O)c2ccccc21 | 767
64 | CCN1C(=O)C2(C(C#N)=C(N)Oc3n[nH]c(-c4ccccc4)c32)c2ccccc21 (stereo not drawn) | 733
65 | O=C(NCCc1c[nH]c2ccccc12)c1cc(-c2ccccn2)nc2ccccc12 | 868
66 | COc1ccccc1CCNC(=O)CCc1csc(NC(=O)NC2CCCCC2)n1 | 786

Row | Structure (SMILES) | RP-LC retention time [s]
67 | COc1cccc(CN2CCC(N3C[C@H](OC)[C@@H]3c3cccnc3)CC2)n1 | 504
68 | CCOc1ccccc1C(=O)n1nc(C)c(S(=O)(=O)N2CCCCC2)c1C | 1160
69 | COc1ccc(C(=O)N2CCC(c3noc(-c4ccncc4)n3)C2)cn1 (stereo not drawn) | 673
70 | Cc1oc(-c2[nH]ncc2C(=O)N(C)C)cc1S(=O)(=O)NCC(C)C | 671
71 | Cc1ccc(NS(=O)(=O)c2cn(CC(C)C)c3ncccc23)c(F)c1 | 986
72 | Cc1cc(C(=O)NCC(O)(c2ccccc2)C(F)(F)F)no1 (stereo not drawn) | 776
73 | CCn1ccc2cc(S(=O)(=O)N3CCCC(C(=O)NCc4cc(OC)ccc4OC)C3)ccc21 (stereo not drawn) | 988
74 | COc1cc(-c2noc(-c3nn(-c4cccc(F)c4)ccc3=O)n2)cc(OC)c1OC | 824
75 | O=C1NC(C(=O)NCc2cccs2)Cn2cccc21 (stereo not drawn) | 620
76 | Cc1cc2c(cc1CNC(=O)Cn1c(C)c(C#N)c3ccccc31)OCCCO2 | 894
77 | CC(C)COc1cc(=O)n2c(c1C(=O)N1CCOCC1)CCCCC2 | 656
78 | O=C(C1CCN(S(=O)(=O)c2ccc(-c3noc(-c4ccccn4)n3)cc2)CC1)N1CCCC1 | 792
79 | COc1cc(Br)c(CC2C(=O)Nc3ccccc32)cc1OC (stereo not drawn) | 842
80 | CC(=O)N1CCC(C(=O)N2CCCn3cc(-c4ccccc4)nc32)CC1 | 602
81 | CC(C)CCNC(=O)C1(C)Cn2nc(C(=O)NC(C)c3ccccc3)cc2C(=O)N1C (stereo not drawn) | 778
82 | CCn1c(C(=O)N(C)c2ccc(Br)cc2)cc2c(=O)oc3ccccc3c21 | 1030
83 | CCc1nc2cc(N3CCCC(C(=O)NCCN4CCN(C)CC4)C3)cnc2nc1CC (stereo not drawn) | 583
84 | COc1ccc2c(c1)C1(CCN(C(=O)NCCC(C)C)C1)C(=O)N2 (stereo not drawn) | 716
85 | CCC(=O)N1CCc2cc(-c3ccc(C(=O)NCCc4ccco4)cc3)ccc21 | 888
86 | CN(C)C(=O)CN1CCN(c2ccccc2)CC1 | 792
87 | CCc1ccc(-c2cc(C(F)(F)F)on2)cc1S(=O)(=O)N1CCN(c2ccccn2)CC1 | 933
88 | CCOC(=O)c1[nH]c(C)c(CN(Cc2ccc3c(c2)OCO3)C(=O)C2CC2)c1C | 929
